Where two headings read alike, the source gives them in different places.

One assay concerns A549. The assay is described as follows: Growth inhibition in NSCLC comparison line (selectivity and multidrug resistance studies). As to conditions: maximum 25 μM, read-out: IC50 NSCLC A-549 (sensitive). The format is cell-based, human. As to the method:
(§1) This assessment of the growth inhibitory activity of the compounds was tested in quadruplicate at a maximum concentration of 25 μM, followed by 10 serially diluted concentrations.
Compound 7e was analyzed for cancer cell growth inhibitory activity in a sensitive NSCLC cell line (A549) and a multidrug resistant lung cancer cell line (NCI-H69AR) which expresses the ABCC1 efflux pump protein. This assessment of activity tested compounds in quadruplicate at a maximum concentration of 25 μM, followed by 10 serially diluted concentrations.
(§2) A549, IEC-6, MCF-10A and 3t3 cells were harvested from 90-95% confluent cultures in 10 cm dishes, and diluted in growth media recommended by the suppliers as follows: A549 cells were cultured in RPMI-1640 medium supplemented with 5% fetal bovine serum (FBS). IEC-6 cells were obtained from ATCC and cultured in Dulbecco’s modified Eagle’s medium (DMEM) supplemented with 10% FBS and 0.1 unit/mL recombinant insulin. Swiss 3t3 cells were obtained from ATCC and cultured in DMEM supplemented with 10% FBS. MCF-10Acells were obtained from ATCC and cultured in a mixture DMEM and F12 media supplemented with 5% fetal bovine serum (FBS), 20 ng/mL recombinant epidermal growth factor, 10 µg/mL insulin, 0.5 µg/mL hydrocortisone and 100 ng/mL cholera toxin. An appropriate concentration of cells was prepared to add 1,250 cells in a volume of 25 µL per well in tissue culture treated BD 384-well microplates, then incubated overnight at 37 °C.
Compound 7e and the positive control, sunitinib, were diluted to a concentration of […] in DMSO. Concentrated dosing solutions (double the final concentration) were prepared by dilution of the DMSO stocks 1:500 in growth medium. Two-fold serial dilutions were then prepared in medium containing 0.2% DMSO to maintain a constant concentration of vehicle throughout the concentration range of the compound. Each of these was added in equal volume (25 µL) to four wells on each cell assay plate, along with vehicle control. The highest concentration for serial dilutions of the positive control sunitinib was prepared exactly as the experimental compounds. […]
At the end of the treatment period, assay plates were allowed to cool to RT for 10 min prior to addition of 25 µL per well Promega CellTiterGlo reagent, followed by an additional 10 min incubation at RT. The resulting luminescence was quantitated using a Molecular Devices Spectramax Paradigm.Percent growth inhibition was calculated using equation (1). The potency of compounds was determined using the non-linear dose response algorithm (four-parameter logistic fit) with GraphPad Prism 5 software. […]
Compound 7e was diluted to a concentration of 25 µM in DMSO. […] The resulting luminescence was quantitated using a Molecular Devices Spectramax Paradigm. […]

Another assay deals with MCF-10A. The assay is described as follows: Selectivity: growth inhibition in non-tumorigenic cell line. Type of assay: cell-based, human. As to conditions: 72 h, maximum 25 μM, read-out: IC50 Breast MCF-10A. The procedure:
as §1, §2
Compound 7e and the positive control, sunitinib, were diluted to a concentration of 25 µM in DMSO. Concentrated dosing solutions (double the final concentration) were prepared by dilution of the DMSO stocks 1:500 in growth medium. Two-fold serial dilutions were then prepared in medium containing 0.2% DMSO to maintain a constant concentration of vehicle throughout the concentration range of the compound. […]
(§3) At the end of the treatment period, assay plates were allowed to cool to RT for 10 min prior to addition of 25 µL per well Promega CellTiterGlo reagent, followed by an additional 10 min incubation at RT. The resulting luminescence was quantitated using a Molecular Devices Spectramax Paradigm.Percent growth inhibition was calculated using equation (1). The potency of compounds was determined using the non-linear dose response algorithm (four-parameter logistic fit) with GraphPad Prism 5 software.

The next assay relates to Swiss 3t3 fibroblasts. Described as above. The format is cell-based, mice. The following applies: Mus musculus, 72 h, maximum 25 μM, read-out: IC50 Fibroblast Swiss 3t3. The procedure:
as §1
A549, IEC-6, MCF-10A and 3t3 cells were harvested from 90-95% confluent cultures in 10 cm dishes, and diluted in growth media recommended by the suppliers as follows: A549 cells were cultured in RPMI-1640 medium supplemented with 5% fetal bovine serum (FBS). IEC-6 cells were obtained from ATCC and cultured in Dulbecco’s modified Eagle’s medium (DMEM) supplemented with 10% FBS and 0.1 unit/mL recombinant insulin. Swiss 3t3 cells were obtained from ATCC and cultured in DMEM supplemented with 10% FBS. […]
as §3

In general, IC50 refers to the concentration that gives 50% inhibition. For the molecule `O=C1Nc2ccc(Br)cc2C1=NN=C1C(=O)N(Cc2ccccc2)c2ccccc21` [Compound 7e, 1-Benzyl-3-((5-bromo-2-oxoindolin-3-ylidene)hydrazono)indolin-2-one], the 50% inhibitory concentration (IC50) in the assay with A549 (72 h) was found to be 1.6 µM; in the assay with A549 (Homo sapiens, A549, 72 h), 1.56 µM; in the assay on MCF-10A, 1.75 µM; with MCF-10A (Homo sapiens, MCF-10A) it was 1.76 µM; in the assay on Swiss 3t3 fibroblasts, 2.56 µM.

As for `CCN(CC)CCNC(=O)c1c(C)[nH]c(/C=C2\C(=O)Nc3ccc(F)cc32)c1C` [Sunitinib, sunitinib, reference compound], the IC50 in the assay on A549 (72 h) stood at 3.1 µM; in the assay with A549 (Homo sapiens, A549, 72 h), 3.06 µM; in the assay on MCF-10A (Homo sapiens, MCF-10A), 4.43 µM; with Swiss 3t3 fibroblasts it was 4.07 µM.
